“Also recorded” adds a separate entry of the source.
Tests used:
[1] = test system: FASN and ACACA transcripts in AsPC1 cells; settings: MRTX1133 100 nM, 24 hours; cited from earlier work
[2] = test system: FASN and ACACA transcripts in AsPC1 cell-derived xenograft; settings: 30 mg/kg MRTX1133 6 hours prior to tumor collection; cited from earlier work
[3] = test system: autophagic flux in 7940B cells; experiment: GFP-LC3-RFP-LC3ΔG autophagic flux probe assay in 7940B cells; assay type: cell-based, mouse; settings: for basal autophagic flux / autophagic flux induced by torin-1: apilimod 100 nM, ESK981 1000 nM, chloroquine 50 μM; for autophagic flux induced by torin-1: torin-1 100 nM
Excerpt: (§1) Generation of the autophagic flux probe in 7940B, Panc 04.03, and iKRAS was done according to the original author's instructions. Kaizuka, T. et al., Mol Cell 64, 835-849, doi:10.1016/j.molcel.2016.09.037 (2016). Briefly, cells were infected with pMRX-IP-GFP-LC3-RFP-LC3DG, which was a gift from Noboru Mizushima (Addgene plasmid #84572; http://n2t.net/addgene:84572; RRID:Addgene_84572). Following puromycin selection, single-cell clones were expanded and genotyped to ensure the absence of homologous recombination between two LC3 fragments during retrovirus integration.
(§2) 15,000 cells were seeded in 96-well plates. After overnight incubation, cells were treated with the indicated compounds for 24 hours. […] Fluorescent signals were detected using the Infinite M1000 Pro plate reader (Tecan).

[4] = test system: autophagic flux in Panc 04.03 cells; experiment: GFP-LC3-RFP-LC3ΔG autophagic flux probe assay in Panc 04.03 cells; assay type: cell-based, human; settings: for autophagic flux induced by torin-1: 4-hour pre-treatment, then torin-1 100 nM 24 hours; for autophagic flux induced by torin-1 / basal autophagic flux: apilimod 300 nM, ESK981 1000 nM, chloroquine
Excerpt: as §1, §2

[5] = test system: FASN and ACACA; experiment: qPCR of FASN and ACACA in PDAC cell lines treated with KRAS-MAPK inhibitors; assay type: cell-based; settings: eight hours; PDAC cell lines with the relevant KRAS mutation
Experimental: Total RNA was isolated from cells using the miRNeasy kit (Qiagen), and cDNA was synthesized from 1000 ng of total RNA using Maxima First Strand cDNA Synthesis Kit for RT-qPCR (Thermo Fisher Scientific). Quantitative real-time PCR was performed in triplicates using standard SYBR green reagents and protocols on a QuantStudio 5 Real-Time PCR system (Applied Biosystems). The target mRNA expression was quantified using the ΔΔCt method and normalized to ACTB (human) or Actb (murine) expression. All primers were designed using Primer 3 (http://frodo.wi.mit.edu/primer3/) and synthesized by Integrated DNA Technologies (Coralville).

[6] = test system: 7940B cells; experiment: Targeted metabolomics in 7940B cells; assay type: cell-based, mouse; settings: apilimod 100 nM, ESK981 1000 nM
Experimental: Polar metabolites from samples treated in biological triplicates were extracted using 80% v/v methanol/water and normalized using protein quantification from an additional sample from each condition. Equal estimated amounts of metabolites were dried using a SpeedVac vacuum concentrator, reconstituted in 50% v/v methanol in water, and analyzed by LC-MS as previously described. Data were analyzed as previously described with the Agilent Masshunter Workstation Quantitative Analysis for QQQ version 10.1 Build 10.1.733.0. No post-detection normalization was performed to avoid assuming linearity of signal. Heatmaps were generated using the Morpheus Matrix Visualization and analysis tool (https://software.broadinstitute.org/morpheus).

[7] = biological target: T1, mouse PIKfyve protein (Mus musculus, UniProt Q9Z1T6); experiment: Cellular Thermal Shift Assay (CETSA) in 7940B cells; assay type: binding; settings: 1000 nM, 2 hours
T1 construct: endogenous in cells; host or cells: 7940B (murine KPC pancreatic cancer cell line)
T1 sequence (Q9Z1T6 whole entry): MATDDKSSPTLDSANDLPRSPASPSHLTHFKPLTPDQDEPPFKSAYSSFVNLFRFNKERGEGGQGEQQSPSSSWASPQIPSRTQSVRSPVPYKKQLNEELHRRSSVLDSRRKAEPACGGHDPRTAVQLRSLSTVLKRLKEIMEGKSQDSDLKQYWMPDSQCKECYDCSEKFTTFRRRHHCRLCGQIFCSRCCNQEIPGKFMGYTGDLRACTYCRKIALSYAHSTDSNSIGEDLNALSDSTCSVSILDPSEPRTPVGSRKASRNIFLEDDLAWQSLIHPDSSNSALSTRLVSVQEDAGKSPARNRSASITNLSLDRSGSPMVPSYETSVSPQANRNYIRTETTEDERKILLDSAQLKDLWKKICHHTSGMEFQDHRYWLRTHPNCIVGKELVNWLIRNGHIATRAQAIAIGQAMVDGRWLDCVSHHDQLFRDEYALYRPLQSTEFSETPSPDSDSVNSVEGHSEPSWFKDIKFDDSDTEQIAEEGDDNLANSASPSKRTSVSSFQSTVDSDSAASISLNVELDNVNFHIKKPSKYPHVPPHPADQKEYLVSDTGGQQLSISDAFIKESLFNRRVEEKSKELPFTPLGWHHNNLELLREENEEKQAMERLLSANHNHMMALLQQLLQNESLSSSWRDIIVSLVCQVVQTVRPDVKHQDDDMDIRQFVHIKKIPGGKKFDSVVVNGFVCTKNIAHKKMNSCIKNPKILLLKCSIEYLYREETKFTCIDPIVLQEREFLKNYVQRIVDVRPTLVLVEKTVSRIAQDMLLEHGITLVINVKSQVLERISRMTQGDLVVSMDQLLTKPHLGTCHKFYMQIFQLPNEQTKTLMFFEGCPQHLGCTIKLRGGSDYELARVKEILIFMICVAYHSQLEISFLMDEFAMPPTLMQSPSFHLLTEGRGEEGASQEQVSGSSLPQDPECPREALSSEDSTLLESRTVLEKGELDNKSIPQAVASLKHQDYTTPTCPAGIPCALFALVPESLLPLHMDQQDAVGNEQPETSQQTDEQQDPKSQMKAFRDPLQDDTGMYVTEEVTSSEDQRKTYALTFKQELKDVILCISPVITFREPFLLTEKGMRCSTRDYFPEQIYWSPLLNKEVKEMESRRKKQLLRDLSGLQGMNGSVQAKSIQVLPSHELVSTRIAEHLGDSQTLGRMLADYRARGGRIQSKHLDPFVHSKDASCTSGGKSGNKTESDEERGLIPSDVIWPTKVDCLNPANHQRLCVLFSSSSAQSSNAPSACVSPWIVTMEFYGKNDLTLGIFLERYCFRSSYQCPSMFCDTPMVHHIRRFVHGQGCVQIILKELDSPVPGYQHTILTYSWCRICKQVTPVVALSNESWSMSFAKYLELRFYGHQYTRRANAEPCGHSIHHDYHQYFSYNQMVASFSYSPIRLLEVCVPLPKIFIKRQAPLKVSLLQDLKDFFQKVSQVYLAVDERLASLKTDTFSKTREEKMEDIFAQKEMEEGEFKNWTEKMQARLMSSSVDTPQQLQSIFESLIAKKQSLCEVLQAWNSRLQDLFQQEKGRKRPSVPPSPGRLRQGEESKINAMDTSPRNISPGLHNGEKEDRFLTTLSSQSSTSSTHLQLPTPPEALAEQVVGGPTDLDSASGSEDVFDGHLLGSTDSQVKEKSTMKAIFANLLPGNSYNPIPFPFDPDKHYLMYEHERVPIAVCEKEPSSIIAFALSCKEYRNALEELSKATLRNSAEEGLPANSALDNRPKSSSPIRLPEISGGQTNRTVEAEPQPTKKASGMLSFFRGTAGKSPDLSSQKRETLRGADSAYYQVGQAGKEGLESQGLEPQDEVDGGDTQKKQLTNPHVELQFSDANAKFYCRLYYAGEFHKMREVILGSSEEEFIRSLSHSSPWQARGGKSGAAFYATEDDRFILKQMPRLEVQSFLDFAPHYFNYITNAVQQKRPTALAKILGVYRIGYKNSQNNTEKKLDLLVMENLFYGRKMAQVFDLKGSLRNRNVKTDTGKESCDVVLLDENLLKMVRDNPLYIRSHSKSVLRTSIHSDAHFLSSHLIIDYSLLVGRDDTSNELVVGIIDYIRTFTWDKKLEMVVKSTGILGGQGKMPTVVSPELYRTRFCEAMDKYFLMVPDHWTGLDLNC
Experimental: CETSA was performed according to previously described protocols^71. Briefly, 7940B cells were seeded overnight and were subsequently treated with DMSO, ESK981 (1000 nM), or apilimod (1000 nM) for 2 hours. Cells were then harvested and made into single-cell suspensions of 1×10^6 cells each in […] of PBS containing protease inhibitors. The suspensions were then subjected to heating and cooling cycles (two cycles of 3-minute heating followed by 3-minute cooling at room temperature) using a thermal cycler. Cells were then lysed with three cycles of freeze-thawing in liquid nitrogen. Lysates were then analyzed using immunoblot analysis as previously described.

[8] = Ikonomov et al. 2019; cited from earlier work
[9] = test system: cell surface MHC-I; experiment: Flow cytometry of cell surface MHC-I in mouse cancer lines; assay type: cell-based; settings: pancreatic (KPC1361); extended to 4T1, B16-F10, LLC
[10] = test system: 7940B cells; experiment: RNA-seq in 7940B cells; assay type: cell-based, mouse; settings: eight-hour treatment
Experimental: RNA-seq libraries were prepared using 800 ng of total RNA. Ribosomal RNA were removed by enzymatic digestion of the specific probe-bound duplex rRNA, and then fragmented to around 200-300 bp with heat in fragmentation buffer (KAPA RNA Hyper+RiboErase HMR, Roche). Double-stranded cDNA was then synthesized by reverse transcription and underwent end-repair and ligation using New England Biolabs (NEB) adapters. Final library preparation was then prepared by amplification with 2×KAPA HiFI HotStart mix and NEB dual barcode. Library quality was measured on an Agilent 2100 Bioanalyzer (DNA 1000 chip) for concentration and product size. Paired-end libraries were sequenced with the Illumina NovaSeq, (2×151 nucleotide read length) with sequence coverage to 30-40 million paired reads. Reads were demultiplexed using Illumina's bcl2fastq conversion software v2.20. Transcripts were quantified by the alignment-free approach kallisto using index generated from mouse reference genome (mm10) and then summed to obtain gene level counts. Differential analysis was performed using limma-voom after TMM-normalization of gene level counts with calcNormFactors of edgeR. Genes with mean Transcripts Per Million (TPM) less than 1 in both control and treatment groups were considered as lowly expressed genes and excluded for differential analysis. […]

[11] = test system: 7940B cells; experiment: Targeted lipidomics in 7940B cells; assay type: cell-based, mouse; settings: 24 hours; apilimod 100 nM, ESK981 1000 nM
Experimental: Sample preparation: Samples for lipidomics analyses were prepared according to the automatic dual-metabolite/lipid sample preparation workflow described in the Agilent application note 5994-5065EN. Briefly, 1 million cells were washed in PBS and lysed with 1:1 trifluoroethanol/water at room temperature. Lysates were transferred to microcentrifuged tubes, incubated for 10 minutes, and then centrifuged at 250×g for 30 seconds. Samples were then dehydrated under reduced pressure with no heat. […]
LC-MS/MS analysis: samples were analyzed on an Agilent 1290 Infinity II Bio LC ultra-high performed liquid chromatography (UPLC) system consisting of a high-pressure binary pump, multicolumn thermostat, and a temperature controlled multi-sampler. Samples were analyzed in randomized order on an Agilent 649C triple quadrupole mass spectrometer equipped with an Agilent Jet Stream Dual ESI ion source. Specifically, samples were analyzed with the reverse phase LC-MS/MS method reported in the Agilent application note 5994-3747EN. After acquisition, datasets were processed with MassHunter Quantitative analysis software and subsequently imported into Mass Profiler Professional (MPP) for chemometric analysis. […]

[12] = test system: 7 human and mouse PDAC cell lines; settings: 7 days, CellTiter-Glo
Experimental: Cells were plated into 96-well plates and incubated overnight at 37° C. in 5% CO2. The following day, a serial dilution of the indicated compounds was prepared in culture medium and added to the plate. The cells were then further incubated for 5 days (experiments involving MRTX1133 or trametinib) or 7 days (all other experiments). Subsequently, the CellTiter-Glo assay (Promega), was then performed according to the manufacturer's instructions. The luminescence signal was acquired using an Infinite M1000 Pro plate reader (Tecan), and the data were analyzed using GraphPad Prism 10 (GraphPad Software Inc.).

[13] = test system: autophagic flux in iKras cells; experiment: Autophagic flux probe assay in iKRAS 9805 cells; assay type: cell-based; settings: doxycycline withdrawal; apilimod 100 nM, ESK981 1000 nM, chloroquine 10 μM, 24 hours
Excerpt: as §1, §2

[14] = test system: 7940B cells; experiment: Real-time oxygen consumption rate (Resipher) in 7940B cells; assay type: cell-based, mouse; settings: apilimod 100 nM, ESK981 1000 nM, bafilomycin 100 nM, chloroquine 100 μM
Experimental: Real-time monitoring of basal oxygen consumption rate was performed using a Resipher (Lucid Scientific). […] Immediately following treatment with an additional 50 μl of medium (for a total of 100 μl), OCR monitoring was started by placing the Resipher device on the cells, which was incubated at 37° C. and 5% CO2 for 24 hours.

[15] = 24-hour treatment, labeled doses
[16] = MRTX1133 300 nM or trametinib 25 nM, 24 hours

C#Cc1c(F)ccc2cc(O)cc(-c3ncc4c(N5CC6CCC(C5)N6)nc(OC[C@@]56CCCN5C[C@H](F)C6)nc4c3F)c12 [MRTX1133]
FASN and ACACA transcripts in vitro [1]: decreases FASN and ACACA transcripts | FASN and ACACA transcripts in vivo [2]: decreases FASN and ACACA transcripts | autophagy upon acute KRAS G12D inhibition [3, 15]: upregulate autophagy | autophagic flux upon KRAS-MAPK inhibition [3, 16]: induced autophagic flux | autophagy upon acute KRAS G12D inhibition [4, 15]: upregulate autophagy | autophagic flux upon KRAS-MAPK inhibition [4, 16]: induced autophagic flux | transcription of FASN and ACACA [5]: decreased transcription of FASN and ACACA

Cc1cccc(/C=N/Nc2cc(N3CCOCC3)nc(OCCc3ccccn3)n2)c1 [apilimod, N-[(E)-(3-methylphenyl)methylideneamino]-6-morpholin-4-yl-2-(2-pyridin-2-ylethoxy)pyrimidin-4-amine]
glycolytic metabolites ([6]; eight hours): dramatic depletion of glycolytic metabolites | citrate level ([6]; three hours): decrease in citrate | binding / stabilization of PIKfyve (CETSA) [7]: bind to mouse PIKfyve protein; also recorded: stabilization of PIKfyve | in vivo pharmacokinetics [8]: poor in vivo pharmacokinetics | basal autophagic flux ([3]; 24 hours): decreased | autophagic flux induced by torin-1 [3]: decreased | cell surface expression of MHC-I [9]: increased cell surface expression of MHC-I | gene expression changes [10]: concordant gene expression changes | most upregulated pathways [10]: cholesterol homeostasis, MTORC1 signaling, and fatty acid metabolism | autophagic flux induced by torin-1 [4]: decreased | basal autophagic flux [4]: decreased | cellular lipid landscape [11]: induced significant changes in the cellular lipid landscape

CCN(CC)CCCC(C)Nc1ccnc2cc(Cl)ccc12 (centres unmarked) [chloroquine]
basal autophagic flux ([3]; 24 hours): decreased | autophagic flux induced by torin-1 [3]: decreased | half-maximal inhibitory concentrations (IC50), cell viability [12]: much higher | increase in autophagic flux upon Kras OFF [13]: attenuated | autophagic flux induced by torin-1 [4]: decreased | basal autophagic flux [4]: decreased | OCR through 24 hours of treatment [14]: significantly decreased OCR
